In brackets after ≈: the same amount, converted by molar mass.
Key:
[1] = tested on: E. coli clinical isolate E16; assay: Drug-sensitivity test (paper disc, inhibition zone); assay type: cell-based, Escherichia coli; parameters: key to Drug sensitivity of E. coli E16: R: resistant strains; I: intermediate strains; S: sensitive strains
Method: (§1) E. coli (ATCC 8739) and clinical isolates of E. coli (E1, E9, E12, E14, E16, and E18) were stored at the Animal Biochemical Laboratory of Shanxi Agricultural University and grown in Luria-Bertani (LB) broth as previously reported ([Zhao et al., 2021]). Circular 6 mm paper pieces were prepared with filter paper and autoclaved for sterilization. […] Then, 0.5 mL of antibiotic solution was added to 100 sterilized papers. Subsequently, the paper pieces were fully infiltrated and dried in a vacuum drying oven to produce antibiotic susceptibility papers. The E. coli strain was retrieved from the -20°C freezer and activated by incubating it on LB agar media at 37°C for 24h. Individual colonies were selected and transferred to LB liquid media. Thereafter, the E. coli suspension was obtained by shaking at 37°C and 160 r/min for 18h. The obtained suspension was centrifuged at 5000 r/min for 5min, after which the supernatant was discarded, and the bacteria were resuspended in fresh medium to a concentration of 1×10^6 CFU/mL. Two hundred microliters of the bacterial suspension mentioned above was spread evenly onto LB agar medium. Then, the antibiotic susceptibility papers were placed on the medium surface using sterile tweezers. After 24h of incubation at 37°C, the diameter of the inhibition zone was measured to determine the susceptibility of E. coli to antibiotics.

[2] = tested on: E. coli clinical isolate E9; assay: as above; assay type: cell-based, Escherichia coli; parameters: key: R: resistant strains; I: intermediate strains; S: sensitive strains; settings: 6 mm antibiotic paper on LB agar, 1×10^6 CFU/mL, 24h 37°C, inhibition zone diameter
Method: as §1

[3] = tested on: E. coli clinical isolate E18; assay: as above; assay type: cell-based, Escherichia coli; parameters: key: R: resistant strains; I: intermediate strains; S: sensitive strains; settings: 6 mm antibiotic paper on LB agar, 1×10^6 CFU/mL, 24h 37°C, inhibition zone diameter
Method: as §1

E. coli (ATCC 8739) [4] = assay: as above; assay type: cell-based, Escherichia coli; parameters: key: R: resistant strains; I: intermediate strains; S: sensitive strains; settings: 6 mm antibiotic paper on LB agar, 1×10^6 CFU/mL, 24h 37°C, inhibition zone diameter
Method: as §1

E. coli (ATCC 8739) [5] = assay: Sterilization kinetics assay; assay type: cell-based, Escherichia coli; settings: 8 μg/mL, 1×10^5 CFU/mL, 37°C, colony count
Method: The sterilization kinetics assay was performed following previous methods ([Peng et al., 2022]; [Yong Fang et al., 2023]). […] At each time point, 10 μL of sample was diluted in 1 mL of PBS, and 100 μL of the dilution was plated on LB agar plates. After incubating at 37°C for 24h, the number of colonies was counted.

[6] = tested on: E. coli clinical isolate E1; assay type: cell-based; parameters: key: R: resistant strains; I: intermediate strains; S: sensitive strains; settings: 6 mm antibiotic paper on LB agar, 1×10^6 CFU/mL, 24h 37°C, inhibition zone diameter
Method: as §1

E. coli (E16) = assay: Chicken infection with MDR E. coli; assay type: in vivo
Method: Except for the blank control group injected with 500 μL of normal saline, the other four groups were injected with 500 μL of 3×10^9 CFU/mL E. coli (E16) into the pectoral muscles. […] Clinical symptoms and were observed and documented for the chickens in each group after infection. After 72h, the chickens in each group were euthanized and examined for internal organ damage. Paraffin sections were prepared for microscopic examination of pathological changes. Under sterile conditions, 1 g samples of heart, liver, and spleen were collected, and each sample was supplemented with 20 mL of sterile PBS. After thorough grinding, the sample was diluted to the appropriate multiple, and 100 μL of the diluent was spread onto LB agar medium. The plates were incubated for 24h, after which the colonies were counted.

[7] = tested on: E. coli clinical isolate E1; assay: microbe, parasite or virus in culture; settings: Escherichia coli
Method: (§2) The minimum inhibitory concentrations (MICs) of the AMPs were determined using the microbroth dilution technique ([van Harten et al., 2021]). One hundred microliters of bacterial suspension at a concentration of 1×10^6 CFU/mL was pipetted into a 96-well plate. Then, 100 μL of AMP or gentamicin at various concentrations was added, while the bacterial suspension without AMPs and blank medium were used as controls.

[8] = tested on: E. coli clinical isolate E12; assay: Drug-sensitivity test (paper disc, inhibition zone); assay type: cell-based, Escherichia coli; parameters: key to Drug sensitivity of E. coli E12: R: resistant strains; I: intermediate strains; S: sensitive strains
Method: as §1

[9] = tested on: E. coli clinical isolate E14; assay: microbe, parasite or virus in culture; assay type: cell-based, Escherichia coli; settings: Escherichia coli
Method: as §2

[10] = tested on: E. coli clinical isolate E16; assay: microbe, parasite or virus in culture; assay type: cell-based, Escherichia coli; settings: Escherichia coli
Method: as §2

[11] = tested on: E. coli clinical isolate E12; assay: microbe, parasite or virus in culture; assay type: cell-based, Escherichia coli; settings: Escherichia coli
Method: as §2

[12] = tested on: E. coli clinical isolate E9; assay: microbe, parasite or virus in culture; assay type: cell-based, Escherichia coli; settings: Escherichia coli
Method: as §2

[13] = tested on: E. coli clinical isolate E18; assay: microbe, parasite or virus in culture; assay type: cell-based, Escherichia coli; settings: Escherichia coli
Method: as §2

E. coli (ATCC 8739) [14] = assay: microbe, parasite or virus in culture; assay type: cell-based, Escherichia coli; settings: Escherichia coli, ATCC8739
Method: as §2

[15] = tested on: E. coli clinical isolate E14; assay: Drug-sensitivity test (paper disc, inhibition zone); assay type: cell-based, Escherichia coli; parameters: key to Drug sensitivity of E. coli E14: R: resistant strains; I: intermediate strains; S: sensitive strains
Method: as §1

[16] = 6 mm antibiotic paper on LB agar, 1×10^6 CFU/mL, 24h 37°C, inhibition zone diameter

## CNC(C)C1CCC(N)C(OC2C(N)CC(N)C(OC3OCC(C)(O)C(NC)C3O)C2O)O1 (stereo not shown) [gentamicin, reference compound]
[1]; [16]
  Drug sensitivity of E. coli E16: S
[1]; paper disc test
  Drug sensitivity of E. coli E16 (in words): susceptible
[2]
  Drug sensitivity of E. coli E9: I
[3]
  Drug sensitivity of E. coli E18: R
E. coli (ATCC 8739) [4]
  Drug sensitivity of E. coli ATCC 8739: I
E. coli (ATCC 8739) [5]
  Time for complete bacterial eradication: ≤ 60 min
[6]
  Drug sensitivity of E. coli E1: R
E. coli (E16); 200 μg/mL, 500 μL into pectoral muscle 4h after 1.5×10^9 CFU E16
  3-day mortality rate: 10%
E. coli (E16); after 3 days of infection, vs infected untreated
  Bacterial loads in the heart, liver and spleen (in words): significantly reduced
E. coli (E16); autopsy, vs E. coli infection group
  Organ lesions of heart, liver, intestine (in words): significant reduction in organ lesions
[7]; 18 h, read-out: MIC against E. coli E1
  MIC: 64 µg/mL (≈ 134 µM)
[7]; 24 h, read-out: MBC against E. coli E1
  MBC: 64 µg/mL (≈ 134 µM)
[8]; [16]
  Drug sensitivity of E. coli E12: S
[8]; paper disc test
  Drug sensitivity of E. coli E12 (in words): susceptible
[9]; 50 μL from fully inhibited wells plated on LB agar, colonies counted after 24h 37°C, read-out: MBC against E. coli E14
  MBC: 4 µg/mL (≈ 8.38 µM)
[9]; microbroth dilution, 1×10^6 CFU/mL, 37°C 18h, turbidity, read-out: MIC against E. coli E14
  MIC: 4 µg/mL (≈ 8.38 µM)
[10]; 50 μL from fully inhibited wells plated on LB agar, colonies counted after 24h 37°C, read-out: MBC against E. coli E16
  MBC: 4 µg/mL (≈ 8.38 µM)
[10]; microbroth dilution, 1×10^6 CFU/mL, 37°C 18h, turbidity, read-out: MIC against E. coli E16
  MIC: 4 µg/mL (≈ 8.38 µM)
[11]; 50 μL from fully inhibited wells plated on LB agar, colonies counted after 24h 37°C, read-out: MBC against E. coli E12
  MBC: 4 µg/mL (≈ 8.38 µM)
[11]; microbroth dilution, 1×10^6 CFU/mL, 37°C 18h, turbidity, read-out: MIC against E. coli E12
  MIC: 4 µg/mL (≈ 8.38 µM)
[12]; 50 μL from fully inhibited wells plated on LB agar, colonies counted after 24h 37°C, read-out: MBC against E. coli E9
  MBC: 8 µg/mL (≈ 16.8 µM)
[12]; microbroth dilution, 1×10^6 CFU/mL, 37°C 18h, turbidity, read-out: MIC against E. coli E9
  MIC: 8 µg/mL (≈ 16.8 µM)
[13]; 50 μL from fully inhibited wells plated on LB agar, colonies counted after 24h 37°C, read-out: MBC against E. coli E18
  MBC: 128 µg/mL (≈ 268 µM)
[13]; microbroth dilution, 1×10^6 CFU/mL, 37°C 18h, turbidity, read-out: MIC against E. coli E18
  MIC: 64 µg/mL (≈ 134 µM)
E. coli (ATCC 8739) [14]; 50 μL from fully inhibited wells plated on LB agar, colonies counted after 24h 37°C, read-out: MBC against E. coli ATCC 8739
  MBC: 8 µg/mL (≈ 16.8 µM)
E. coli (ATCC 8739) [14]; microbroth dilution, 1×10^6 CFU/mL, 37°C 18h, turbidity, read-out: MIC against E. coli ATCC 8739
  MIC: 8 µg/mL (≈ 16.8 µM)
[15]; [16]
  Drug sensitivity of E. coli E14: S
[15]; paper disc test
  Drug sensitivity of E. coli E14 (in words): susceptible

Reference: PMC11133627, “CATH-2-derived antimicrobial peptide inhibits multidrug-resistant Escherichia coli infection in chickens” (Frontiers in Cellular and Infection Microbiology, 2024)
